Measurements taken from article PMC7957705 (Molecules, 2021).
Where two headings read alike, the source gives them in different places. Blank lines part the entries; values can stand above or below the compound they belong to. Where a SMILES comes first, the peptide text is derived from it. Bridges are numbered along the chain shown (N, C = ends). Triazole bridges read from a SMILES are 1,4-linked. [ ]: non-standard residue; d: D form. The star is where a group is joined. Benzoyl(4-guanidino) = N=C(N)Nc1ccc(C(=O)*)cc1; Aha = [N-]=[N+]=NCC[C@H](N)C(=O)O; β3hV = CC(C)[C@H](N)CC(=O)O; Pra = C#CC[C@H](N)C(=O)O

Legend:
treated animals = settings: cited from earlier work
human MCH-R1 [1] = target: T1, human MCH-R1 (Homo sapiens, UniProt Q99705); experiment: Binding displacement of [125I]-[Phe13,Tyr19]-MCH at membranes expressing human MCH-R1
T1 construct: expressed in transfected cells
Protocol: Stable cell lines were obligatory for all receptor programs. We cloned the human receptor and established the cell line as previously described. In brief, HEK293 (HEK) cells were grown in Dulbecco’s Modified Eagle medium (DMEM) supplemented with 10% fetal calf serum, 2 mM glutamine, 100 IU/mL penicillin and […] streptomycin. They were seeded at 5 × 10^6 cells in T75 cm^2 culture flasks. One day later, they were transfected with […] of the pcDNA3.1 (Invitrogen, Groningen, The Netherlands) containing the human MCH-R1 using lipofectamine (Life Technologies, Cergy Pontoise, France), as previously described. One day later, cells were trypsinized, resuspended in a complete DMEM medium containing […] of geneticin and seeded at different dilutions in 96-well plates which were kept for 2 to 3 weeks in a humidified CO2 incubator. At the end of the selection period, isolated clones were picked up, amplified, and further characterized by cyclic AMP experiments. For each cell line, one positive clone was subcloned before being used for all of the cyclic AMP, [^35S]-GTPγS and receptor binding experiments necessary to characterize them. The stable HEK293 cell line expressing the human MCH-R1 was HEK-hMCH-R1.
Membrane preparations were classically made as previously described. In brief, the HEK-hMCH-R cell line was grown to confluency, harvested in PBS buffer containing 2 mM EDTA and centrifuged at 10,000× g for 5 min (4°C). The resulting pellet was suspended in 20 mM Hepes buffer (pH 7.5), containing 5 mM EGTA and homogenized using a Kinematica polytron. The homogenate was then centrifuged (95,000× g, 30 min, 4 °C) and the resulting pellet was suspended in 50 mM HEPES buffer (pH 7.5), containing 10 mM MgCl2 and 2 mM EGTA. Aliquots of membrane preparations were stored at −80 °C until use. Binding has been described in numerous publications and the test was based on Mac Donald et al.’s description. […] Nonspecific binding is determined in the presence of 0.1 μM MCH. […] The filters are dried and then counted for radioactivity in a scintillation counter (Topcount, Packard) using a scintillation cocktail (Microscint 0, Packard). The results are expressed as percentage inhibition of the control radioligand specific binding. The standard reference compound is MCH, which was tested in each experiment at 8 concentrations to obtain a competition curve from which its IC50 is calculated. The high level of assay robustness and reproducibility of each control monitored over several decades (internal data base, Eurofins) and included in every assay ensure results’ reliability even when performed only twice. […]

human MCH-R1 [2] = target: T1, human MCH-R1; experiment: MCH-induced cytosolic Ca2+ ion mobilization, antagonist effect; format: cell-based; settings: for Ki: antagonism of MCH-induced cytosolic Ca2+ mobilization, read-out: Ki (functionality, antagonism at MCH-R1)
Protocol: The functional assay was run onto cells expressing the hMCH-R1 receptor, as described in Wang et al.. In brief, the cells are suspended in DMEM buffer (Invitrogen), then distributed in microplates at a density of 4.104 cells/well. The fluorescent probe (Fluo4 Direct, Invitrogen) mixed with probenecid in Hanks’ Balanced Salt solution (HBSS) (Invitrogen) complemented with 20 mM HEPES (Invitrogen) (pH 7.4) is then added into each well and equilibrated with the cells for 60 min at 37 °C, then 15 min at 22 °C. Then, the assay plates are positioned in a microplate reader (CellLux, PerkinElmer) which is used for the addition of the test compound, reference agonist or HBSS buffer (basal control), and the measurements of changes in fluorescence intensity, which varies proportionally to the free cytosolic Ca^2+ ion concentration. For stimulated control measurements, MCH at 300 nM is added in separate assay wells. The results are expressed as a percentage of the control response to 300 nM MCH. The standard reference agonist is MCH, which is tested in each experiment at several concentrations to generate a concentration-response curve from which its EC50 value is calculated. For the antagonist effect, the results are expressed as a percentage inhibition of the control response to 30 nM MCH, which was added to all tested wells and controls 5 min after the candidate products.

rat plasma = settings: 37 °C, up to 300 min
human plasma = settings: 37 °C, up to 300 min
human MCH-R1 [3] = target: T1, human MCH-R1; design: method as in PMID 19619599, PMID 23267345; settings: cited from earlier work
[4] = format: in vitro ADME; settings: for half-life: plasma
Protocol: Plasmas from 3 species (including commercially available human healthy donors) were adjusted to pH 7.4 if necessary. Incubations were performed at a concentration of 1 µM of the compound at 37 °C (in the presence of a final concentration of DMSO of 2.5% v/v. The incubations were stopped at 0, 15, 30, 60 and 120 min by methanol. Each time point was run in sextuplets. The sampling plates were then centrifuged (2500 rpm, 45 min, 4 °C) and the supernatants pooled. Samples were analyzed for parent compound by LC-MS/MS. The percentage of parent compound remaining at each time point relative to the 0 min sample is then calculated from LC-MS/MS peak area ratios. Then, the stability in plasma was evaluated by incubating human, rat or mouse plasma with the compound(s) as follows: the product (0.1 µM in TRIS buffer pH 7.4 0.1% BSA) was incubated with the plasma at 37 °C. The disappearance of the product was measured at 15, 45, 120, 240 and 300 min by mass spectrometry. Incubations were carried out in a robot Star (Hamilton France, Villebon-sur-Yvette, France). At each sampling time, 50 µL of the reaction medium was removed and diluted with 100 µL of acetonitrile. After centrifugation (20 min at + 4 °C, 4000 rpm), 75 µL of the supernatants was transferred into a 384 well injection plate. Ten microliters were injected onto UPLC coupled with a XEVO TQS mass spectrometer system (Waters, Milford, MA, USA). The unchanged product is quantified using a reference sample (0.1 µM) prepared during the incubation process. A second reference sample at 0.01 µM is prepared in the same conditions to verify the linearity of the detection method. The peak height (or area) is measured to calculate the half-life of the compound.

[5] = Stability and metabolite identification on rat hepatocytes; format: in vitro ADME; settings: 20 µM, 5 h
Protocol: (§1) The stability of the compound was studied on hepatocyte cultures from Wistar rats and CD1 mice. The compound was incubated at 20 µM in the presence of 1.106 cells/mL for 5 h. The incubation was then stopped with acetonitrile (v/v) and the supernatant, after a brief centrifugation (2500 rpm, 5 min 4 °C) was submitted to LC-MS analysis, using a THERMO […] coupled to a Waters Acquity UPLC System equipped with a Waters Acquity UPLC C18 100 × 2.1 mm 1.7 µm column.

[6] = Stability and metabolite identification on mouse hepatocytes; format: in vitro ADME; settings: 20 µM, 5 h
Protocol: as §1

T1 sequence (Q99705 whole entry): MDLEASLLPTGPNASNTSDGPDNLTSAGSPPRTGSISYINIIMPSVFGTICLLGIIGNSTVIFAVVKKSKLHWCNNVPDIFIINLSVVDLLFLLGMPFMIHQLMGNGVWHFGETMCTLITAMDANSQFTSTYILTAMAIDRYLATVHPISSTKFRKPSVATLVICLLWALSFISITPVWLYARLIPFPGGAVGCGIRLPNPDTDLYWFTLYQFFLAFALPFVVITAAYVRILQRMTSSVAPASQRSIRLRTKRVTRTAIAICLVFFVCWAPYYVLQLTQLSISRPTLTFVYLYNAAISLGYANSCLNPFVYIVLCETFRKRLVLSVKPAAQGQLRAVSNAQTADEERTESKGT

Compound: COCC1=C(C(=O)OC)[C@H](c2ccc(F)c(F)c2)N(C(=O)NCCCN2CCC(c3cccc(NC(C)=O)c3)CC2)C(=O)N1 [SNAP-7941]
behavioral concerns (treated animals): some behavioral concerns have been reported

affinity at the MCH-R1 receptor (in words) (human MCH-R1 [1]): poor binders
Ki (human MCH-R1 [2]): 30 nM
Compound: CSCC[C@H](NC(=O)[C@H](C)NC(=O)c1ccc(NC(=N)N)cc1)C(=O)N[C@@H](CC(C)C)C(=O)N[C@@H](CCCNC(=N)N)C(=O)N[C@H](C(=O)N[C@@H](CCCNC(=N)N)C(=O)N1CCC[C@H]1C(=O)N[C@@H](C)C(=O)N[C@@H](Cc1c[nH]c2ccccc12)C(=O)O)C(C)C [GPS13670] ({Benzoyl(4-guanidino)}-AMLRVRPAW-OH)

Compound: COc1cc(-n2cnc3cc(-c4ccc(Cl)cc4)sc3c2=O)ccc1OCCN1CCCC1 [GW803430]
behavioral concerns (treated animals; in vivo): some behavioral concerns have been reported

Compound: CN(C)c1nc(NC2CCC(NCCc3ccc(Br)cc3OC(F)(F)F)CC2)nc2ccccc12 (centres unmarked) [ATC0065]
behavioral concerns (treated animals): some behavioral concerns have been reported

Compound: pGua-[N3-hAla-MLR-βhVal-RP-hPra]-W-OH
not cleaved (rat plasma): not metabolized at all, 100% of the initial dose found at 300 (5 h)
not cleaved (human plasma): not metabolized at all, 100% of the initial dose found at 300 (5 h)

Compound: Gua-N3-hAla-Nle-Leu-Arg-βhVal-Arg-Pro-hPra-Trp
not cleaved (rat plasma): not metabolized at all, 100% of the initial dose found at 300 (5 h)
not cleaved (human plasma): not metabolized at all, 100% of the initial dose found at 300 (5 h)

Ki (human MCH-R1 [2]): 5 nM
half-life ([4]; human, pH 7.4): 0.233 ± 0.0167 h
half-life ([4]; mouse, pH 7.4): 0.383 ± 0.03 h
half-life ([4]; rat, pH 7.4): 1 ± 0.05 h
Compound: CSCC[C@@H]1NC(=O)[C@@H](NC(=O)c2ccc(NC(=N)N)cc2)CSSC[C@@H](C(=O)N[C@@H](Cc2c[nH]c3ccccc23)C(=O)O)NC(=O)[C@@H]2CCCN2C(=O)[C@H](CCCNC(=N)N)NC(=O)[C@H](Cc2ccc(O)cc2)NC(=O)[C@H](C(C)C)NC(=O)[C@H](CCCNC(=N)N)NC(=O)[C@H](CC(C)C)NC1=O [S38151, p-guanidinobenzoyl-Des-Gly(10)-MCH(7-17), reference compound] ({Benzoyl(4-guanidino)}-CMLRVYRPCW-OH; disulfide 1-9; N-terminus and C-terminus assumed)
affinity at the human MCH-R1 receptor (human MCH-R1 [3]): low nanomolar range

affinity at the MCH-R1 receptor (in words) (human MCH-R1 [1]): superior affinity
antagonistic functionality (in words) (human MCH-R1 [2]): high picomolar range
Ki (human MCH-R1 [2]): 0.028 nM
stability on hepatocytes [5]: mild stability
stability on hepatocytes [6]: mild stability
stability in plasma (in words) ([4]; human): most stable compound
half-life ([4]; human): ≥ 5 h
initial dose remaining after incubation in mice plasma ([4]; mouse): ~20%
stability in plasma (in words) ([4]; mouse): most stable compound
half-life ([4]; mouse): 2.88 ± 0.15 h
stability in plasma (in words) ([4]; rat): most stable compound
half-life ([4]; rat): ≥ 5 h
Compound: CSCC[C@@H]1NC(=O)[C@@H](NC(=O)c2ccc(NC(=N)N)cc2)CCn2cc(nn2)C[C@@H](C(=O)N[C@@H](Cc2c[nH]c3ccccc23)C(=O)O)NC(=O)[C@@H]2CCCN2C(=O)[C@H](CCCNC(=N)N)NC(=O)C[C@H](C(C)C)NC(=O)[C@H](CCCNC(=N)N)NC(=O)[C@H](CC(C)C)NC1=O [GPS15290, pGua-[N3-hAla-MLR-βhVal-RP-hPra]-W-OH] ({Benzoyl(4-guanidino)}-[Aha]MLR[β3hV]RP[Pra]W-OH; triazole 1-8)
